From patent US20200405699A1, “TREATING SICKLE CELL DISEASE WITH A PYRUVATE KINASE R ACTIVATING COMPOUND” (FORMA Therapeutics, Inc., priority 2018, published 2020)
pEC50: −log10 of the molar value. Where two headings read alike, the source gives them in different places.

What was measured:
[1] = PK/PD study in wild type mice, exposure; assay type: in vivo, Balb/c mice; conditions: oral; for AUC(0-t): Balb/c, mouse, in vivo, read-out: AUC0-24
Description: (§1) Two pharmacokinetic (PK)/phamacodynamic (PD) studies were conducted in Balb/c mice that were administered Compound 1 once daily by oral gavage (formulated in 10% Cremophor EL/10% PG/80% DI water) for 7 days (QD×7) at doses of 0 (vehicle), 3.75, 7.5, 15, 30, 60 mg/kg (Study 1); 0 (vehicle), 7.5, 15, 30, 60, 120, or 240 mg/kg (Study 2). On the 7th day, whole blood was collected 24 hours after dosing and snap frozen. Samples were later thawed and analyzed by LC/MS for 2,3-DPG and ATP levels.

[2] = molecular target: wt-PKR (Homo sapiens, UniProt P30613); assay: Enzyme assay of Example 3 (kinetic parameters, activation), wt-PKR; assay type: biochemical
wt-PKR, sequence (P30613 whole entry): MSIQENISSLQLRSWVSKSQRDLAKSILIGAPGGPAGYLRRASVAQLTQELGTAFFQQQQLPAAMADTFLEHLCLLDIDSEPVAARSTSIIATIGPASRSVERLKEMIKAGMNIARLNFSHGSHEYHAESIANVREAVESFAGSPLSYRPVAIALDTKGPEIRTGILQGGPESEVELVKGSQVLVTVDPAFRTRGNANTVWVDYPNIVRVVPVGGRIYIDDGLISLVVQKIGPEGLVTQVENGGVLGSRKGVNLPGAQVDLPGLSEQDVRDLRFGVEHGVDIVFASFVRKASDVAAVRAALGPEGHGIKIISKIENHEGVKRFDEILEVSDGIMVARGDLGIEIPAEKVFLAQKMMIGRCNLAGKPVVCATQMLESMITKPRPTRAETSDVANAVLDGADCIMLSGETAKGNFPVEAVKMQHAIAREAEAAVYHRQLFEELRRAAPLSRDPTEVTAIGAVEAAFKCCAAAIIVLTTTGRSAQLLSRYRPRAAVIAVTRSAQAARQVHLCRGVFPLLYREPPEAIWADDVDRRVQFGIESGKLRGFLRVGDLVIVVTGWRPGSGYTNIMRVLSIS
Description: (§2) Tests were conducted in the presence and absence of fructose-1,6-bisphosphate (FBP), a known allosteric activator of PKR.

[3] = SAD/MAD study in healthy volunteers, safety; assay type: in vivo, human; conditions: SAD and MAD cohorts of healthy volunteers
Description: (§3) This is a first-in-human (FIH), Phase 1 study of Compound 1 that will characterize the safety, PK, and PD of Compound 1 after a single dose and after repeated dosing first in healthy adult volunteers and then in adolescents or adults with sickle cell disease. Initially, a dose range of Compound 1 in single ascending dose (SAD) escalation cohorts will be explored in healthy subjects. Enrollment of healthy subjects into 2-week multiple ascending dose (MAD) escalation cohorts will be initiated once the safety and PK from at least two SAD cohorts is available to inform the doses for the 2-week MAD portion of the study. The MAD cohorts will then run in parallel to the single dose cohorts. A single dose cohort is planned to understand food effects (FE) on the PK of Compound 1. […] Multiple dose studies in SCD subjects will then be initiated upon completion of MAD studies in healthy volunteers. Compound 1 will be administered in 25 mg and 100 mg tablets delivered orally. Four healthy SAD cohorts were evaluated at doses of 200, 400, 700, and 1000 mg, and four healthy MAD cohorts received 200 to 600 mg total daily doses for 14 days at QD or BID dosing (100 mg BID, 200 mg BID, 300 mg BID, and 400 mg QD). In the food effect (FE) cohort, 10 healthy subjects received 200 mg of Compound 1 QD with and without food.

[4] = test system: 2,3-DPG blood levels; assay: SAD/MAD study in healthy volunteers, blood 2,3-DPG levels (LC-MS/MS); assay type: in vivo, human
Description: as §3, with “orally.” for “orally. Four healthy SAD cohorts were evaluated at doses of 200, 400, 700, and 1000 mg, and four healthy MAD cohorts received 200 to 600 mg total daily doses for 14 days at QD or BID dosing (100 mg BID, 200 mg BID, 300 mg BID, and 400 mg QD). In the food effect (FE) cohort, 10 healthy subjects received 200 mg of Compound 1 QD with and without food.”
(§4) Four healthy SAD cohorts were evaluated at doses of 200, 400, 700, and 1000 mg, and four healthy MAD cohorts received 200 to 600 mg total daily doses for 14 days at QD or BID dosing (100 mg BID, 200 mg BID, 300 mg BID, and 400 mg QD). In the food effect (FE) cohort, 10 healthy subjects received 200 mg of Compound 1 QD with and without food.
In the SAD cohorts, the subjects' blood 2,3-DPG levels were measured periodically after dosing by a qualified LC-MS/MS method for the quantitation of 2,3-DPG in blood. Decreased 2,3-DPG blood levels were observed 6 hours following a single dose of Compound 1 at all dose levels (earlier timepoints were not collected). Maximum decreases in 2,3-DPG levels generally occurred ˜24 hours after the first dose with the reduction sustained ˜48-72 hr postdose. Table 12 reports the median percentage change in 2,3-DPG blood levels, relative to baseline, measured over time in healthy volunteers after a single dose of Compound 1 (200 mg, 400 mg, 700 mg, or 1000 mg) or placebo. Accordingly, the median reduction in the concentration of 2,3-DPG, relative to baseline, was at least about 30% at all dose levels tested 24 hours after administration of the single dose.
In the MAD cohorts, the subjects' blood 2,3-DPG levels were measured periodically after dosing by a qualified LC-MS/MS method for the quantitation of 2,3-DPG in blood. The maximum decrease in 2,3-DPG on Day 14 was 55% from baseline (median). […] Table 13 reports the median percentage change in 2,3-DPG blood levels, relative to baseline, measured over time after the first dose on days 1 and 14 in healthy volunteers who received daily doses of Compound 1 (100 mg BID, 200 mg BID, or 300 mg BID) or placebo for 14 days. Accordingly, the median reduction in the concentration of 2,3-DPG, relative to baseline, was at least about 25% at all dose levels tested 24 hours after administration of the first dose on day 1 and at least about 40% at all dose levels tested 24 hours after administration of the first dose on day 14.
The following procedures are employed for the analysis of ATP and 2,3-DPG in human whole blood K2EDTA using a protein precipitation extraction procedure and analysis by LC-MS/MS.

[5] = molecular target: T1, PKR-R510Q (Homo sapiens, UniProt P30613, R510Q); assay: Luminescence Assay (Kinase Glo Plus), PKR R510Q; assay type: biochemical; conditions: read-out: AC50 (PKRR510Q)
T1 sequence (P30613 whole entry R510Q): as the sequence (P30613 whole entry) above, with R510Q counted along it
Description: (§5) For each tested compound, the ability to activate PKR was determined using the following Luminescence Assay. The effect of phosphorylation of adenosine-5′-diphosphate (ADP) by PKR is determined by the Kinase Glo Plus Assay (Promega) in the presence or absence of FBP (D-fructose-1,6-diphosphate; BOC Sciences, CAS: 81028-91-3) as follows. Unless otherwise indicated, all reagents are purchased from Sigma-Aldrich. All reagents are prepared in buffer containing 50 mM Tris-HCl, 100 mM KCl, 5 mM MgCl2, and 0.01% Triton X100, 0.03% BSA, and 1 mM DTT. Enzyme and PEP (phosphoenolpyruvate) are added at 2× to all wells of an assay-ready plate containing serial dilutions of test compounds or DMSO vehicle. Final enzyme concentrations for PKR(wt), PKR(R510Q), and PKR(G332S) are 0.8 nM, 0.8 nM, and 10 nM respectively. Final PEP concentration is 100 μM. The Enzyme/PEP mixture is incubated with compounds for 30 minutes at RT before the assay is initiated with the addition of 2×ADP and KinaseGloPlus. Final concentration of ADP is 100 μM. […] For assays containing FBP, that reagent is added at 30 μM upon reaction initiation. Reactions are allowed to progress for 45 minutes at RT until luminescence is recorded by the BMG PHERAstar FS Multilabel Reader. The compound is tested in triplicate at concentrations ranging from 42.5 μM to 2.2 nM in 0.83% DMSO. AC50 measurements were obtained by the standard four parameter fit algorithm of ActivityBase XE Runner (max, min, slope and AC50). The AC50 value for a compound is the concentration (μM) at which the activity along the four parameter logistic curve fit is halfway between minimum and maximum activity.
(§6) As set forth in Tables 2 and 3 below and in FIG. 1, AC50 values are defined as follows: ≤0.1 μM (+++); >0.1 μM and ≤1.0 μM (++); >1.0 μM and ≤40 μM (+); >40 μM (0).

[6] = molecular target: PKR(G332S) (Homo sapiens, UniProt P30613, G332S); assay: Luminescence Assay (Kinase Glo Plus), PKR G332S; assay type: biochemical; conditions: read-out: AC50 (PKRG332S)
PKR(G332S), sequence (P30613 whole entry G332S): as the sequence (P30613 whole entry) above, with G332S counted along it
Description: as §5, §6

[7] = PK/PD study in wild type mice, tolerability; assay type: in vivo; conditions: oral QD x7, both studies
Description: as §1

[8] = molecular target: T2, wt-PKR in mature human erythrocytes (Homo sapiens, UniProt P30613); assay: PKR activation in human red blood cells ex vivo (Biovision Pyruvate Kinase Assay); assay type: cell-based; conditions: human RBCs
T2 construct: evaluated in purified RBCs purchased from Research Blood Components; host or cells: purified human red blood cells from donors
T2 sequence (P30613 whole entry): as the sequence (P30613 whole entry) above
Description: The activation of wt-PKR by Compound 1 in mature human erythrocytes ex vivo was evaluated in purified RBCs purchased from Research Blood Components. Cells treated with Compound 1 for 3 hr in glucose-containing media were washed, lysed, and assayed using a Biovision Pyruvate Kinase Assay (K709-100). The assay was repeated multiple times to account for donor-to-donor variability and the relatively narrow dynamic range.

[9] = test system: 2,3-DPG levels in whole blood; assay: PK/PD study in wild type mice, 2,3-DPG levels in blood; assay type: in vivo, Balb/c mice; conditions: oral QD x7, doses ≥120 mg/kg (120 and 240 mg/kg), blood 24 h after dosing
Description: as §1

[10] = SAD/MAD/food effect study in healthy volunteers, pharmacokinetics; assay type: in vivo, human
Description: as §3, with “orally.” for “orally. Four healthy SAD cohorts were evaluated at doses of 200, 400, 700, and 1000 mg, and four healthy MAD cohorts received 200 to 600 mg total daily doses for 14 days at QD or BID dosing (100 mg BID, 200 mg BID, 300 mg BID, and 400 mg QD). In the food effect (FE) cohort, 10 healthy subjects received 200 mg of Compound 1 QD with and without food.”
as §4

[11] = molecular target: T1, PKR-R510Q; assay: Enzyme assay of Example 3 (kinetic parameters, activation), PKR-R510Q; assay type: biochemical; conditions: for Vmax (normalized): 2 μM Compound 1, normalized within row
Description: as §2

[12] = test system: ATP blood levels; assay: SAD/MAD study in healthy volunteers, blood ATP levels (LC-MS/MS); assay type: in vivo, human; conditions: MAD cohorts, 60 hours after the last dose
Description: This is a first-in-human (FIH), Phase 1 study of Compound 1 that will characterize the safety, PK, and PD of Compound 1 after a single dose and after repeated dosing first in healthy adult volunteers and then in adolescents or adults with sickle cell disease. Initially, a dose range of Compound 1 in single ascending dose (SAD) escalation cohorts will be explored in healthy subjects. Enrollment of healthy subjects into 2-week multiple ascending dose (MAD) escalation cohorts will be initiated once the safety and PK from at least two SAD cohorts is available to inform the doses for the 2-week MAD portion of the study. The MAD cohorts will then run in parallel to the single dose cohorts. […]
Four healthy SAD cohorts were evaluated at doses of 200, 400, 700, and 1000 mg, and four healthy MAD cohorts received 200 to 600 mg total daily doses for 14 days at QD or BID dosing (100 mg BID, 200 mg BID, 300 mg BID, and 400 mg QD). […]
In the MAD cohorts, the subjects' blood ATP levels were measured on day 14 by a qualified LC-MS/MS method for the quantitation of ATP in blood. […] Table 14 reports the median percentage change in blood ATP levels, relative to baseline, measured over time after the first dose on day 14 in healthy volunteers who received daily doses of Compound 1 (100 mg BID, or 200 mg BID) or placebo for 14 days. […]

[13] = molecular target: T3, PKR in mouse RBCs (Mus musculus, UniProt P53657); assay: PKR activation in mouse red blood cells; assay type: cell-based
T3 construct: Mouse RBCs were isolated fresh from whole blood using a Ficoll gradient; endogenous in cells; host or cells: mouse red blood cells isolated fresh from whole blood
T3 sequence (P53657 whole entry): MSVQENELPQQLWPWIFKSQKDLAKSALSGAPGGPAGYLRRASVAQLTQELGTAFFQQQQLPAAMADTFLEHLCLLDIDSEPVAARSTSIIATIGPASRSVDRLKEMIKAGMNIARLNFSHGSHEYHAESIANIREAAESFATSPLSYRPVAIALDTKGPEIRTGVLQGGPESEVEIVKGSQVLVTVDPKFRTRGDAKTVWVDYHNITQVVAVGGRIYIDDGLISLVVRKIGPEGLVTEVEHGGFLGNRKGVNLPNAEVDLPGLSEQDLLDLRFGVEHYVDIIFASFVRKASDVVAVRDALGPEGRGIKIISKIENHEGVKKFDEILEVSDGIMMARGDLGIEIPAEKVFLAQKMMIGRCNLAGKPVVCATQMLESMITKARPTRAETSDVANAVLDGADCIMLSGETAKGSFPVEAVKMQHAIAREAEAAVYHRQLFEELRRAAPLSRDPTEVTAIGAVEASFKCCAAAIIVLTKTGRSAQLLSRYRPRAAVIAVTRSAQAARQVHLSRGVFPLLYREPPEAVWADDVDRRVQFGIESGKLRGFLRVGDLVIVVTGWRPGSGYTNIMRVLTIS
Description: Mouse RBCs were isolated fresh from whole blood using a Ficoll gradient and assayed with methods similar to those used in the human RBCs assays.

[14] = PEP at or below Km, rate of ATP formation

## O=C([C@H](CO)c1ccccc1)N1CC2=C(C1)CN(S(=O)(=O)c1cnc3c(c1)OCCO3)C2 (single isomer, unassigned) [Compound 1]
[1]; doses ≥60 mg/kg
  AUC(0-t): > 4000 ng·h/mL
[1]; doses ≥120 mg/kg
  AUC(0-t): > 5200 ng·h/mL
[1]
  Dose dependence of exposure: dose-proportional
[2]; 30 μM FBP, 2 μM Compound 1, normalized within row
  Vmax (normalized): 1.16
[2]; No FBP, 2 μM Compound 1, normalized to 1.00 relative to other values in same row
  Vmax (normalized): 1.14
[2]; PEP at or below Km
  AC50: < 50 nM
[2]; [14]
  Maximum-fold Activation: <2.0
[3]
  Serious adverse events / AEs leading to withdrawal: No serious adverse events (SAEs) or AEs leading to withdrawal were reported
[4]; MAD cohorts, 72 hours after the final dose on Day 14
  2,3-DPG levels after final dose: had not returned to baseline levels
[4]; MAD study
  Mean maximum reduction in concentration of 2,3-DPG: at least 50%
[4]; MAD, all dose levels, 24 hours after first dose on day 1
  Median reduction in concentration of 2,3-DPG relative to baseline: at least 25%
[4]; MAD, all dose levels, 24 hours after first dose on day 14
  Median reduction in concentration of 2,3-DPG relative to baseline: at least 40%
[4]; SAD cohorts
  Time of maximum decrease in 2,3-DPG levels after first dose: ~24 h
  Time postdose to which 2,3-DPG reduction was sustained: 48 to 72 h
[4]; SAD study
  Mean maximum reduction in concentration of 2,3-DPG: at least 40%
[4]; all single dose levels tested, 24 hours after administration
  Median reduction in concentration of 2,3-DPG relative to baseline: at least 30%
[4]; healthy volunteers, calculated
  PD half-life (2,3-DPG response): ~20 h
[5]
  AC50: ≤ 100 nM
[6]
  AC50: 100 to 1000 nM
[7]
  Adverse clinical signs: No adverse clinical signs were observed
  Body weight change compared with vehicle group: no differences in body weight change
[8]; 3 hr treatment, individual replicates
  pEC50: > 7.30
[8]; mean of replicates
  Max-Min (%), Mean (mean maximum activation increase): <100%
[8]; mean of replicates, read-out: Max-Min (%), Mean (mean maximum activation increase)
  Emax: < 100%
[9]
  Reduction of 2,3-DPG levels: > 30%
[10]; 100-300 mg BID, 400 mg QD
  PK linearity, multiple doses: linear PK
[10]; human, plasma, healthy volunteers, oral, postdose, read-out: Median Tmax
  Tmax: 1 h
[10]; single doses ≥700 mg
  Dose dependence of single dose exposure: greater than dose-proportional
[11]; 30 μM FBP
  Vmax (normalized): 1.29
[11]; No FBP
  Vmax (normalized): 1.56
[11]; PEP at or below Km
  AC50: < 100 nM
[11]; [14]
  Maximum-fold Activation: <3.0
[12]
  ATP levels relative to baseline after last dose: remained elevated
[13]; individual replicates, read-out: EC50
  pEC50: > 6.90
[13]; mean of replicates, read-out: EC50 (nM), Mean
  EC50: < 125 nM
